Patent EP0565593B1, “REDUCING PESTICIDAL INTERACTIONS IN CROPS” (priority 1990, dated 1992)
Read-outs that look alike come from different tables or passages of the source.

Tests used:
Corn [1] = experiment: Greenhouse test Procedure VII: biocide and antidote in furrow, herbicide POE (Examples 39-42, 48-50, 56-58; Tables 38-41, 47-49, 55-57); type: in vivo
In short: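 Corn seed was planted in greenhouse pots, with COUNTER 15G insecticide plus antidote granules applied in-furrow (e.g. 1.1 + 0.37 mg a.i./cm, or 227 g/305 m with acetone-applied safeners). About five days later, herbicides in water with 0.25% v/v X-77 were track-sprayed post-emergence at 187 L/ha. Plant response was scored eight days afterward, with two to four replicates.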

Corn [2] = details: for % Inhibition Corn: PPI; for reducing corn injury, comparison: in vivo
Corn [3] = details: for activity in reducing corn injury: primisulfuron POE + biocides PPI, Tables 8-10
[4] = Antidote + Biocide No. 1 in furrow, Herbicide No. 1 0.14 Kg/Ha POE, 8 days after POE
[5] = Antidote + Biocide No. 1 in furrow, Herbicide No. 4 0.17 Kg/Ha POE, 8 days after POE
[6] = Antidote + Biocide No. 1 in furrow, Herbicide No. 5 0.07 Kg/Ha POE, 8 days after POE
[7] = Antidote + Biocide No. 1 in furrow, Herbicide No. 6 0.01 Kg/Ha POE
[8] = Antidote + Biocide No. 1 in furrow, Herbicide No. 7 0.56 Kg/Ha POE, 8 days after POE
[9] = Antidote + Biocide No. 1 in furrow, Herbicide No. 9 0.009 Kg/Ha POE
[10] = Antidote + Biocide No. 1 in furrow, Herbicide No. 10 0.002 Kg/Ha POE, 8 days after POE
[11] = Antidote + Biocide No. 1 in furrow, Herbicide No. 15 0.0044 Kg/Ha POE, 8 days after POE
[12] = Antidote + Biocide No. 1 in furrow, Herbicide No. 16 0.01 Kg/Ha POE
[13] = Antidote + Biocide No. 1 in furrow, Herbicide No. 18 0.0044 Kg/Ha POE
[14] = Antidote + Biocide No. 1 in furrow, Herbicide No. 19 0.28 Kg/Ha POE
[15] = Antidote + Biocide No. 1 in furrow, Herbicide No. 21 0.14 Kg/Ha POE
[16] = Antidote + Biocide No. 1 in furrow, Herbicide No. 23 0.0006 Kg/Ha POE
[17] = XRD-498 + OP insecticides, Examples 24-27
[18] = ACCENT POE + OP insecticides PPI, Tables 11-14
[19] = Antidote 4.48 + Biocide No. 1 8.96 Kg/Ha PPI, Herb. No. 8 0.07, 5 DAP, before herbicide application
[20] = Antidote 4.48 + Biocide No. 1 8.96 Kg/Ha PPI, Herb. No. 8 0.07 POE, 13 DAP
[21] = Antidote 4.48 + Biocide No. 1 8.96 Kg/Ha PPI, Herbicide No. 7 0.28 POE, 13 days after planting
[22] = Herb. […], 5 DAP, before herbicide application
[23] = Table 14: Herbicide No. 7 (ACCENT) 0.84 Kg/Ha POE + Biocide No. 2 8.96 Kg/Ha PPI + antidote 4.48 Kg/Ha PPI, 13 days after planting, 8 days after herbicide
[24] = […], 13 days after planting, 8 days after herbicide
[25] = […], observed 10 days after herbicide application
[26] = MON-12000 + OP insecticides, Examples 20-23

CC1(C)OC(c2ccco2)CN1C(=O)C(Cl)Cl (centres unmarked) [compound 1]
% Inhibition Corn (Corn [1]; [4]): 15%
% Inhibition Corn (Corn [1]; [5]): 10%
% Inhibition Corn (Corn [1]; [6]): 15%
% Inhibition Corn (Corn [1]; [7]): 15%
% Inhibition Corn (Corn [1]; [8]): 10%
% Inhibition Corn (Corn [1]; [9]): 10%
% Inhibition Corn (Corn [1]; [10]): 15%
% Inhibition Corn (Corn [1]; [11]): 10%
% Inhibition Corn (Corn [1]; [12]): 20%
% Inhibition Corn (Corn [1]; [13]): 15%
% Inhibition Corn (Corn [1]; [14]): 20%
% Inhibition Corn (Corn [1]; [15]): 20%
% Inhibition Corn (Corn [1]; [16]): 20%
% Inhibition Corn (Corn [1]; C (COUNTER) + antidote in furrow, C:A Ratio 20, ACCENT 0.56 Kg/Ha POE): 10%
% Inhibition Corn (Corn [1]; C (COUNTER) + antidote in furrow, C:A Ratio 20, BEACON 0.28 Kg/Ha POE): 5%
% Inhibition Corn (Corn [1]; C (COUNTER) + antidote in furrow, C:A Ratio 40, ACCENT 0.56 Kg/Ha POE): 10%
% Inhibition Corn (Corn [1]; C (COUNTER) + antidote in furrow, C:A Ratio 40, BEACON 0.28 Kg/Ha POE): 5%
% Inhibition Corn (Corn [1]; C (COUNTER) + antidote in furrow, C:A Ratio 80, ACCENT 0.56 Kg/Ha POE): 10%
% Inhibition Corn (Corn [1]; C (COUNTER) + antidote in furrow, C:A Ratio 80, BEACON 0.28 Kg/Ha POE): 10%
% Inhibition Corn (Corn [1]; C (COUNTER) + antidote in furrow, C:A Ratio 160, ACCENT 0.56 Kg/Ha POE): 15%
% Inhibition Corn (Corn [1]; C (COUNTER) + antidote in furrow, C:A Ratio 160, BEACON 0.28 Kg/Ha POE): 15%
% Inhibition Corn (Corn [1]; Herbicide No. 1 0.14 Kg/Ha POE + Biocide No. 1 in furrow, no antidote, 8 days after POE): 35%
% Inhibition Corn (Corn [1]; Herbicide No. 1 0.14 Kg/Ha POE alone, 8 days after POE): 0%
% Corn Inhibition C:A Ratios 5 (Corn [1]; Herbicide No. 8 0.28 Kg/Ha POE + COUNTER 15G 227 g/305 m + antidote in furrow, C:A ratio 5): 3%
% Corn Inhibition C:A Ratios 10 (Corn [1]; Herbicide No. 8 0.28 Kg/Ha POE + COUNTER 15G 227 g/305 m + antidote in furrow, C:A ratio 10): 3%
% Corn Inhibition C:A Ratios 20 (Corn [1]; Herbicide No. 8 0.28 Kg/Ha POE + COUNTER 15G 227 g/305 m + antidote in furrow, C:A ratio 20): 0%
% Corn Inhibition C:A Ratios 40 (Corn [1]; Herbicide No. 8 0.28 Kg/Ha POE + COUNTER 15G 227 g/305 m + antidote in furrow, C:A ratio 40): 0%
% Corn Inhibition C:A Ratios 80 (Corn [1]; Herbicide No. 8 0.28 Kg/Ha POE + COUNTER 15G 227 g/305 m + antidote in furrow, C:A ratio 80): 3%
% Corn Inhibition C:A Ratios 160 (Corn [1]; Herbicide No. 8 0.28 Kg/Ha POE + COUNTER 15G 227 g/305 m + antidote in furrow, C:A ratio 160): 13%
safening activity (Corn [2]; [17]): Safening activity was observed
% Inhibition Corn (Corn [2]; 13 days after PPI (Table 31)): 25%
reducing corn injury, comparison (Corn [2]): superior to No. 28
safener activity (Corn [3]; [18]): most active
% Inhibition 5 DAP Corn (Corn [3]; [19]): 10%
% Inhibition 13 DAP Corn (Corn [3]; [20]): 25%
% Inhibition Corn (Corn [3]; [21]): 20%
% Inhibition 5 DAP Corn (Corn [3]; [22]): 0%
% Inhibition Corn (Corn [3]; [23]): 5%
% Inhibition Corn (Corn [3]; [24]): 5%
% Inhibition Corn (Corn [3]; […], observed 9 days later (Table 29)): 10%
% Inhibition Corn (Corn [3]; […], observed 9 days later (Table 30)): 35%
% Inhibition Corn (Corn [3]; [25]): 55%
% Inhibition 5 DAP Corn (Corn [3]; in vivo): 30%
% Inhibition 13 DAP Corn (Corn [3]; in vivo): 20%
activity in reducing corn injury (Corn [3]): most active

N#CCOc1ccc(Cl)c2cccnc12 [compound 33]
% Inhibition Corn (Corn [1]; [4]): 0%
% Inhibition Corn (Corn [1]; [5]): 5%
% Inhibition Corn (Corn [1]; [6]): 30%
% Inhibition Corn (Corn [1]; [7]): 20%
% Inhibition Corn (Corn [1]; [8]): 10%
% Inhibition Corn (Corn [1]; [9]): 5%
% Inhibition Corn (Corn [1]; [10]): 5%
% Inhibition Corn (Corn [1]; [11]): 15%
% Inhibition Corn (Corn [1]; [12]): 30%
% Inhibition Corn (Corn [1]; [13]): 10%
% Inhibition Corn (Corn [1]; [14]): 10%
% Inhibition Corn (Corn [1]; [15]): 20%
% Inhibition Corn (Corn [1]; [16]): 15%
safening activity (Corn [2]; [26]): Safening activity was observed
safening activity (Corn [2]; [17]): Safening activity was observed
safening (Corn [2]; malathion + Herbicides 1, 21, 18, Example 54): moderate to high degrees of safening
safener activity (Corn [3]; [18]): most active
% Inhibition 5 DAP Corn (Corn [3]; [19]): 25%
% Inhibition 13 DAP Corn (Corn [3]; [20]): 20%
% Inhibition Corn (Corn [3]; [21]): 15%
% Inhibition 5 DAP Corn (Corn [3]; [22]): 0%
safener activity (Corn [3]; PURSUIT POE + insecticides PPI, Tables 15-18): most active
% Inhibition Corn (Corn [3]; [23]): 0%
% Inhibition Corn (Corn [3]; [24]): 10%
% Inhibition Corn (Corn [3]; [25]): 40%
% Inhibition 5 DAP Corn (Corn [3]; in vivo): 30%
% Inhibition 13 DAP Corn (Corn [3]; in vivo): 20%
effect on corn before application of the herbicide (Corn [3]; in vivo): Some injury
activity in reducing corn injury (Corn [3]): most active

COC(=O)COC(c1ccccc1)c1ccccc1 [compound 12]
% Inhibition Corn (Corn [1]; [4]): 0%
% Inhibition Corn (Corn [1]; [5]): 0%
% Inhibition Corn (Corn [1]; [6]): 0%
% Inhibition Corn (Corn [1]; [7]): 0%
% Inhibition Corn (Corn [1]; [8]): 5%
% Inhibition Corn (Corn [1]; [9]): 0%
% Inhibition Corn (Corn [1]; [10]): 5%
% Inhibition Corn (Corn [1]; [11]): 0%
% Inhibition Corn (Corn [1]; [12]): 15%
% Inhibition Corn (Corn [1]; [13]): 10%
% Inhibition Corn (Corn [1]; [14]): 0%
% Inhibition Corn (Corn [1]; [15]): 5%
% Inhibition Corn (Corn [1]; [16]): 5%
safening activity (Corn [2]; [26]): Safening activity was observed
safening activity (Corn [2]; [17]): Safening activity was observed
% Inhibition Corn (Corn [2]; 14 days after PPI (Table 34)): 25%
reducing corn injury, comparison (Corn [2]): superior to No. 28
safener activity (Corn [3]; [18]): most active
% Inhibition 5 DAP Corn (Corn [3]; [19]): 20%
% Inhibition 13 DAP Corn (Corn [3]; [20]): 15%
% Inhibition Corn (Corn [3]; [21]): 20%
% Inhibition 5 DAP Corn (Corn [3]; [22]): 0%
% Inhibition Corn (Corn [3]; [23]): 0%
% Inhibition Corn (Corn [3]; [24]): 0%
% Inhibition Corn (Corn [3]; […], observed 8 days later (Table 32)): 0%
% Inhibition Corn (Corn [3]; […], observed 8 days later (Table 33)): 40%
% Inhibition Corn (Corn [3]; [25]): 60%
% Inhibition 5 DAP Corn (Corn [3]; in vivo): 20%
% Inhibition 13 DAP Corn (Corn [3]; in vivo): 20%
activity in reducing corn injury (Corn [3]): most active
